Results: ChEMBL document CHEMBL1201862, “PubChem BioAssay data set” (2004)
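Exposure lasted 48 hours, with cells grown in 96-well plates and compounds tested at five concentrations. Here, GI50 denotes the concentration required for 50% inhibition of growth.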 Activity calls are given as the source filed them. Cut-off read from the data, not from the text of the source: active = GI50 up to about 1.1 µM and inactive = higher.

Columns and labels:
Assay in all cases: growth of human tumour cells (NCI), 48 h
TK-10 = system: TK-10
NCI-H23 = system: NCI-H23
SK-OV-3 = system: SK-OV-3
786-0 = system: 786-0
HL-60 = system: HL-60
SN12C = system: SN12C
BT-549 = system: BT-549
ACHN = system: ACHN
MDA-MB-231 = system: MDA-MB-231
SW-620 = system: SW-620
DU-145 = system: DU-145
KM12 = system: KM12
UACC-257 = system: UACC-257
UACC-62 = system: UACC-62
HT-29 = system: HT-29
SK-MEL-28 = system: SK-MEL-28
Hs-578T = system: Hs-578T
SF-539 = system: SF-539
SNB-75 = system: SNB-75

Measured: GI50

CCCOc1ccc(/C=C/C2=[N+](CCO)CCO2)cc1
inactive: TK-10 > 100 µM | NCI-H23 > 100 µM | SK-OV-3 > 100 µM | 786-0 > 100 µM | HL-60 > 100 µM | SN12C > 100 µM | BT-549 > 100 µM | ACHN > 100 µM | MDA-MB-231 > 100 µM | SW-620 > 100 µM | DU-145 > 100 µM | KM12 > 100 µM | UACC-257 > 100 µM | UACC-62 > 100 µM | HT-29 > 100 µM | SK-MEL-28 > 100 µM | Hs-578T > 100 µM | SF-539 > 100 µM | SNB-75 > 100 µM

Clc1ccc(/C(=C/c2ccccc2)Cn2ccnc2)cc1
inactive: TK-10 56.1 µM | NCI-H23 38.2 µM | SK-OV-3 19.1 µM | 786-0 30.5 µM | HL-60 14.3 µM | SN12C 22.1 µM | BT-549 22.4 µM | ACHN 16.6 µM | MDA-MB-231 30.2 µM | SW-620 27.6 µM | DU-145 33 µM | KM12 13.2 µM | UACC-257 30.5 µM | UACC-62 28 µM | HT-29 29.6 µM | SK-MEL-28 30.1 µM | Hs-578T 44.5 µM | SF-539 24 µM | SNB-75 18.6 µM

O=C(c1ccccc1)c1sc2c(=O)c(C(=O)c3ccccc3)c(C(=O)c3ccccc3)sc2c(=O)c1C(=O)c1ccccc1
inactive: TK-10 64.3 µM | NCI-H23 42.3 µM | SK-OV-3 37.8 µM | 786-0 32.1 µM | HL-60 21.5 µM | SN12C 54.8 µM | BT-549 37.7 µM | ACHN 51.9 µM | MDA-MB-231 > 100 µM | SW-620 21.8 µM | DU-145 > 100 µM | KM12 > 100 µM | UACC-257 > 100 µM | UACC-62 > 100 µM | HT-29 33.3 µM | SK-MEL-28 > 100 µM | Hs-578T 77.6 µM | SF-539 23.6 µM | SNB-75 24.5 µM

COC(=O)c1ccccc1CC1Cc2c(C)ccc(C)c2C1=O (centres undefined)
inactive: TK-10 20.5 µM | NCI-H23 15.4 µM | SK-OV-3 38.6 µM | 786-0 36.3 µM | HL-60 23.3 µM | SN12C 45.3 µM | BT-549 34.5 µM | ACHN 33.8 µM | MDA-MB-231 16 µM | SW-620 35.6 µM | DU-145 50.5 µM | KM12 23.6 µM | UACC-257 16.2 µM | UACC-62 28.7 µM | HT-29 14.9 µM | SK-MEL-28 48 µM | Hs-578T 33.3 µM | SF-539 51.2 µM | SNB-75 36.1 µM

CC(Cl)(CCC(Cl)C(C)(C)Cl)C(=O)CBr (centres undefined)
inactive: TK-10 11.8 µM | NCI-H23 18.3 µM | SK-OV-3 13.4 µM | 786-0 7.94 µM | HL-60 2.24 µM | SN12C 14.7 µM | BT-549 14.2 µM | ACHN 8.04 µM | MDA-MB-231 11.1 µM | SW-620 2.18 µM | DU-145 19.5 µM | KM12 15.6 µM | UACC-257 12.4 µM | UACC-62 10.1 µM | HT-29 13.1 µM | SK-MEL-28 16.7 µM | Hs-578T 17.4 µM | SF-539 16.1 µM | SNB-75 13.6 µM

O=C(Nn1cc(F)c(=O)[nH]c1=O)C12CC3CC(CC(C3)C1)C2
inactive: TK-10 18.1 µM | NCI-H23 7.73 µM | SK-OV-3 18.4 µM | 786-0 10.7 µM | HL-60 9.46 µM | SN12C 11.5 µM | BT-549 17.5 µM | ACHN 10.7 µM | MDA-MB-231 12.7 µM | SW-620 15.5 µM | DU-145 8.3 µM | KM12 6.27 µM | UACC-257 22 µM | UACC-62 7.59 µM | HT-29 8.17 µM | SK-MEL-28 12.9 µM | Hs-578T 25.4 µM | SF-539 2.21 µM | SNB-75 24.8 µM
